Source: US7625889B2, “Substituted bis aryl and heteroaryl compounds as selective 5HT2A antagonists” (Aventis Pharmaceuticals Inc., priority 2005, dated 2009)
Where a name gives a salt, the structure may show the parent alone.

Biological target: T1, human 5HT2A receptor (Homo sapiens, UniProt P28223)
T1 construct: expressed in transfected cells
Assay: Receptor Binding Assay, 5HT2A ([3H]N-methyl spiperone)
Details: BHK cells expressing human 5HT2A receptor, 2.5 nM [3H]N-methyl spiperone, 37° C.
Method: Cell Culture: BHK cells stably expressing the human 5HT2A receptor were maintained in Dulbecco's Modified Eagle's Medium supplemented with […] Geneticin, 1% Sodium Pyruvate, 1% Pen-Strep and 10% Fetal Calf Serum, and treated with 5 mM sodium butyrate for 24 h to increase receptor expression before harvesting. Cells were harvested by mechanical scraping, washed with Phosphate Buffered Saline, and stored at −80° C. in 10% DMSO in 1 mg/mil aliquots until used. Protein determination was made according to Lowry.
Receptor Binding Assays: The 5HT2A and D2L assays were conducted at 37° C. in a Tris buffer containing salts (50 mM Tris Buffer, pH 7.7; 120 mM NaCl; 5 mM KCl; 2 mM CaCl2; 1 mM MgCl2). Cell membranes (previously prepared and frozen) were rapidly thawed. Membranes were diluted to an appropriate concentration (to produce 100 μg protein/assay point for 5HT2A, and 58 μg protein/assay point for D2L) in Tris buffer and homogenized. Assays were conducted on 96-well plates, using 2.5 and 1 nM [^3H]N-methyl spiperone as radioligand for 5HT2A and D2L assays, respectively. Plates were incubated at 37° C. in a shaking water bath for 30 and 60 min, for 5HT2A and D2L, respectively. Nonspecific binding was defined using 100 μM methylsergide and eticlopride, for 5HT2A and D2L, respectively.
Assays were terminated by rapid filtration through Millipore MAFB or MAFC (5HT2C) filter plates (presoaked in 50 mM Tris HCl, pH 7.7, with 0.1% Brij) using a Millipore Cell Harvester. The filter plates were then washed with ice-cold 50 mM Tris buffer, pH 7.7, and allowed to dry overnight. 50 μl of Microscint scintillation cocktail were added and the plates were counted in a Packard Topcount scintillation counter.
IC50 and Ki calculations were performed using nonlinear regression one-site competition analysis (GraphPad, Prism), with top and bottom limits held constant at 0% and 100% inhibition, respectively. The percent inhibition at each drug concentration was the average of duplicate determinations. Except where indicated, each determination was performed 2 to 5 times.

T1 sequence (P28223 whole entry): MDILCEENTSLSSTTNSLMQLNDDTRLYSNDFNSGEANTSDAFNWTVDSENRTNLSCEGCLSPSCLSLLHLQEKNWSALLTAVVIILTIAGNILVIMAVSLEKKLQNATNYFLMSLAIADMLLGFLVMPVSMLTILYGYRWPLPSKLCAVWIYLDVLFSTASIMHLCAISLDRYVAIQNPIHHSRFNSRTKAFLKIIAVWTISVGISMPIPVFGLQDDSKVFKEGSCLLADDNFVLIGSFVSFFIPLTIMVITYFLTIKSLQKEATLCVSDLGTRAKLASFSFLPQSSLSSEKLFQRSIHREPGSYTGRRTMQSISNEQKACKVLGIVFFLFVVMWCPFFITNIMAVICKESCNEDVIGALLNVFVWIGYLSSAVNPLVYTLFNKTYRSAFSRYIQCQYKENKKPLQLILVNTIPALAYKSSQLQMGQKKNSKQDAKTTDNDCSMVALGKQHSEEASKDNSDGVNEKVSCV

Ki	Compound
14.9 nM	Fc1ccc(CN(Cc2cc(-c3ccc4[nH]nnc4c3)ccc2F)C[C@H]2CCCN2)cc1 [Example 80, [5-(1H-Benzothiazol-5-yl)-2-fluoro-benzyl]-(4-fluoro-benzyl)-pyrrolidin-2R-ylmethyl-amine trihydrochloride]
2 nM	Fc1ccc(CN(Cc2cc(-c3ccc4[nH]ncc4c3)ccc2F)C[C@@H]2CCCN2)cc1 [Example 81]
0.51 nM	Fc1ccc(CN(Cc2cc(-c3ccc4[nH]ncc4c3)ccc2F)C2CCNCC2)cc1 [Example 82]
0.82 nM	CNCCN(Cc1ccc(F)cc1)Cc1cc(-c2ccc3[nH]ncc3c2)ccc1F [Example 83, N-(4-Fluoro-benzyl)-N-[2-fluoro-5-(1H-indazol-5-yl)-benzyl]-N′-methyl-ethane-1,2-diamine]
0.37 nM	Fc1ccc(-c2ccc3[nH]nnc3c2)cc1CN(Cc1cccs1)C1CCNCC1 [Example 84, [5-(1H-Benzotriazol-5-yl)-2-fluoro-benzyl]-piperidin-4-yl-thiophen-2-ylmethyl-amine]
0.42 nM	Fc1ccc(CN(Cc2cc(-c3ccc4[nH]nnc4c3)ccc2F)C2CCNCC2)cc1 [Example 85, [5-(1H-Benzotriazol-5-yl)-2-fluoro-benzyl]-(4-fluoro-benzyl)-piperidin-4-yl-amine]
1.68 nM	CNCCN(Cc1ccc(F)cc1)Cc1cc(-c2ccc3[nH]nnc3c2)ccc1F [Example 86, N-[5-(1H-Benzotriazol-5-yl)-2-fluoro-benzyl]-N-(4-fluoro-benzyl)-N′-methyl-ethane-1,2-diamine]
14.2 nM	CCN1CCC[C@H]1CN(Cc1ccc(F)cc1)Cc1cc(-c2ccc3[nH]nnc3c2)ccc1F [Example 87, [5-(1H-Benzotriazol-5-yl)-2-fluoro-benzyl]-(1-ethyl-pyrrolidin-2S-ylmethyl)-(4-fluoro-benzyl)-amine hydrochloride]
1.16 nM	CN1CCC(N(Cc2ccc(F)cc2)Cc2cc(-c3ccc4[nH]nnc4c3)ccc2F)CC1 [Example 88, [5-(1H-Benzotriazol-5-yl)-2-fluoro-benzyl]-(4-fluoro-benzyl)-(1-methyl-piperidin-4-yl)-amine hydrochloride]
1 nM	CN1CCC(N(Cc2ccc(F)cc2)Cc2cc(-c3ccc4[nH]c(=O)oc4c3)ccc2F)CC1 [Example 89, 6-(4-Fluoro-3-{[(4-fluoro-benzyl)-(1-methyl-piperidin-4-yl)-amino]-methyl}-phenyl)-3H-benzooxazol-2-one]
0.42 nM	CN1CCC(N(Cc2ccc(F)cc2)Cc2cc(-c3ccc4[nH]ncc4c3)ccc2F)CC1 [Example 90, (4-Fluoro-benzyl)-[2-fluoro-5-(1H-indazol-5-yl)-benzyl]-(1-methyl-piperidin-4-yl)-amine]
0.6 nM	CN1CCN(Cc2cc(-c3ccc4[nH]ccc4c3)ccc2F)C(c2ccco2)C1 (centres unmarked) [Example 93, 5-[4-Fluoro-3-(2-furan-2-yl-4-methyl-piperazin-1-ylmethyl)-phenyl]-1H-indole]
0.89 nM	CN1CCN(Cc2cc(-c3ccc4[nH]ncc4c3)ccc2F)[C@@H](c2ccc(F)cc2)C1 [Example 96, 5-{4-Fluoro-3-[2S-(4-fluoro-phenyl)-4-methyl-piperazin-1-ylmethyl]-phenyl}-1H-indazole]
0.77 nM	CN1CCN(Cc2cc(-c3ccc4[nH]c(=O)oc4c3)ccc2F)[C@@H](c2ccc(F)cc2)C1 [Example 97, 6-{4-Fluoro-3-[2S-(4-fluoro-phenyl)-4-methyl-piperazin-1-ylmethyl]-phenyl}-3H-benzooxazol-2-one]
0.29 nM	CN1CCN(Cc2cncc(-c3ccc4[nH]ncc4c3)c2)[C@@H](c2ccc(F)cc2)C1 [Example 99, 5-{5-[2S-(4-Fluoro-phenyl)-4-methyl-piperazin-1-ylmethyl]-pyridin-3-yl}-1H-indazole]
0.6 nM	O=C(c1ccc(F)cc1)N(CCCN1CCCC1)Cc1cc(-c2ccc3[nH]ncc3c2)ccc1F [Example 100, 4-Fluoro-N-[2-fluoro-5-(1H-indazol-5-yl)-benzyl]-N-(3-pyrrolidin-1-yl-propyl)-benzamide]

Ki	Compound
0.39 nM	O=C(c1ccc(F)cc1)N(CCN1CCCC1)Cc1cc(-c2ccc3[nH]nnc3c2)ccc1F [Example 101, N-[5-(1H-Benzotriazol-5-yl)-2-fluoro-benzyl]-4-fluoro-N-(2-pyrrolidin-1-yl-ethyl)-benzamide]
0.88 nM	CN1CCC(N(Cc2cc(-c3ccc4[nH]ncc4c3)ccc2F)C(=O)c2ccc(F)cc2)CC1 [Example 102, 4-Fluoro-N-[2-fluoro-5-(1H-indazol-5-yl)-benzyl]-N-(1-methyl-piperidin-4-yl)-benzamide]
3.8 nM	CN1CCC(N(Cc2cc(-c3ccc4[nH]ccc4c3)ccc2F)C(=O)c2ccncn2)CC1 [Example 105, Pyrimidine-4-carboxylic acid [2-fluoro-5-(1H-indol-5-yl)-benzyl]-(1-methyl-piperidin-4-yl)-amide]
9 nM	CN1CCC(N(Cc2cc(-c3ccc4[nH]ccc4c3)ccc2F)C(=O)c2cccnn2)CC1 [Example 106, Pyridazine-3-carboxylic acid [2-fluoro-5-(1H-indol-5-yl)-benzyl]-(1-methyl-piperidin-4-yl)-amide]
85 nM	CN1CCC(N(Cc2cc(-c3ccc4[nH]ccc4c3)ccc2F)C(=O)c2ccnnc2)CC1 [Example 107, Pyridazine-4-carboxylic acid [2-fluoro-5-(1H-indol-5-yl)-benzyl]-(1-methyl-piperidin-4-yl)-amide]
16 nM	CN1CCC(N(Cc2cc(-c3ccc4[nH]ccc4c3)ccc2F)C(=O)c2ncccn2)CC1 [Example 108, Pyrimidine-2-carboxylic acid [2-fluoro-5-(1H-indol-5-yl)-benzyl]-(1-methyl-piperidin-4-yl)-amide]
85 nM	CC(C)Oc1ccc(C(=O)N(Cc2cc(-c3ccc4[nH]ccc4c3)ccc2F)C2CCN(C)CC2)cc1 [Example 110, N-[2-Fluoro-5-(1H-indol-5-yl)-benzyl]-4-isopropoxy-N-(1-methyl-piperidin-4-yl)-benzamide]
85 nM	CC(C)Oc1cccc(C(=O)N(Cc2cc(-c3ccc4[nH]ccc4c3)ccc2F)C2CCN(C)CC2)c1 [Example 111, N-[2-Fluoro-5-(1H-indol-5-yl)-benzyl]-3-isopropoxy-N-(1-methyl-piperidin-4-yl)-benzamide]
6 nM	CN1CCC(N(Cc2cc(-c3ccc4[nH]ccc4c3)ccc2F)C(=O)c2ccc(OC(F)(F)F)cc2)CC1 [Example 112, N-[2-Fluoro-5-(1H-indol-5-yl)-benzyl]-N-(1-methyl-piperidin-4-yl)-4-trifluoromethoxy-benzamide]
0.4 nM	Fc1ccc([C@H]2CNCCN2Cc2cncc(-c3ccc4[nH]ncc4c3)c2)cc1 [Example 113, 5-{5-[2S-(4-Fluoro-phenyl)-piperazin-1-ylmethyl]-pyridin-3-yl}-1H-indazole]
0.48 nM	Fc1ccc([C@H]2CNCCN2Cc2cncc(-c3ccc4[nH]ccc4c3)c2)cc1 [Example 114, 5-{5-[2S-(4-Fluoro-phenyl)-piperazin-1-ylmethyl]-pyridin-3-yl}-1H-indole acetate]
2.88 nM	Fc1ccc([C@H]2CNCCN2Cc2cc(-c3ccc4[nH]ccc4c3)co2)cc1 [Example 115, 5-{5-[2S-(4-Fluoro-phenyl)-piperazin-1-ylmethyl]-furan-3-yl}-1H-indole]
1.79 nM	Fc1ccc([C@H]2CNCCN2Cc2cc(-c3ccc4[nH]ncc4c3)co2)cc1 [Example 116, 5-{5-[2S-(4-Fluoro-phenyl)-piperazin-1-ylmethyl]furan-3-yl}-1H-indazole]
4.79 nM	O=c1[nH]c2ccc(-c3coc(CN4CCNC[C@@H]4c4ccc(F)cc4)c3)cc2o1 [Example 117, 6-{5-[2S-(4-Fluoro-phenyl)-piperazin-1-ylmethyl]-furan-3-yl}-3H-benzooxazol-2-one acetate]
1.1 nM	CN1CCC(N(Cc2ccc(F)cc2)Cc2cc(-c3ccc4[nH]c(=O)oc4c3)co2)CC1 [Example 118, 6-(5-{[(4-Fluoro-benzyl)-(1-methyl-piperidin-4-yl)-amino]-methyl}-furan-3-yl)-3H-benzooxazol-2-one]

Compound	Ki
O=C(c1ccc(F)cc1)N(Cc1cc(-c2ccc3[nH]ccc3c2)ccc1F)[C@H]1CN2CCC1CC2 [Example 77, N-(1-Aza-bicyclo[2.2.2]oct-3R-yl)-4-fluoro-N-[2-fluoro-5-(1H-indol-6-yl)-benzyl]-benzamide]	0.49 nM
O=C(c1ccc(F)cc1)N(Cc1cc(-c2ccc3[nH]c(=O)oc3c2)ccc1F)C1CN2CCC1CC2 (centres unmarked) [Example 78]	0.76 nM
O=C(c1ccc(F)cc1)N(Cc1cc(-c2ccc3[nH]c(=O)oc3c2)ccc1F)[C@H]1CN2CCC1CC2 [Example 79]	0.61 nM
O=C(c1ccc(F)cc1)N(Cc1cc(-c2ccc3[nH]ncc3c2)ccc1F)[C@H]1CN2CCC1CC2 [Example 103, N-(1-Aza-bicyclo[2.2.2]oct-3R-yl)-4-fluoro-N-[2-fluoro-5-(1H-indazol-5-yl)-benzyl]-benzamide]	1.01 nM
